Assay results reported in patent US10059703B2, “3-alkyl-5-fluoro-4-substituted-imino-3,4-dihydropyrimidin-2(1H)-one derivatives as fungicides” (Adama Makhteshim Ltd., priority 2012, dated 2018).
Where two headings read alike, the source gives them in different places.

Key:
Septoria tritici = test: Fungicidal activity: leaf blotch of wheat, one-day protectant and three-day curative tests on wheat plants; format: in vivo; settings: Zymoseptoria tritici
Method: Example 16: Evaluation of Fungicidal Activity: Leaf Blotch of Wheat (Mycosphaerella graminicola; anamorph: Septoria tritici; Bayer code SEPTTR)
Wheat plants (variety Yuma) were grown from seed in a greenhouse in 50% mineral soil/50% soil-less Metro mix until the first leaf was fully emerged, with 7-10 seedlings per pot. These plants were inoculated with an aqueous spore suspension of Septoria tritici either prior to or after fungicide treatments. After inoculation the plants were kept in 100% relative humidity (one day in a dark dew chamber followed by two to three days in a lighted dew chamber) to permit spores to germinate and infect the leaf. The plants were then transferred to a greenhouse for disease to develop.
(§1) The following tables present the activity of typical compounds of the present disclosure when evaluated in these experiments. The effectiveness of the test compounds in controlling disease was determined by assessing the severity of disease on treated plants, then converting the severity to percent control based on the level of disease on untreated, inoculated plants.
as §1, with “table presents” for “tables present”

[1] = 24 h, One-Day Protectant (1 DP), 100 ppm, wheat plants (variety Yuma), read-out: SEPTTR 100 PPM 1 DP (% Disease Control rating)
[2] = 72 h, Three-Day Curative (3 DC), 100 ppm, wheat plants (variety Yuma), read-out: SEPTTR 100 PPM 3 DC (% Disease Control rating)
[3] = 24 h, read-out: SEPTTR 100 PPM 1 DP (% Disease Control rating)
[4] = 72 h, read-out: SEPTTR 100 PPM 3 DC (% Disease Control rating)

`CC(=O)/N=c1\c(F)cn(S(=O)(=O)c2ccc(C(C)C)cc2)c(=O)n1C` [Compound F33] gave a pest or weed control at 100 ppm (Septoria tritici; [1]) of 76 to 100%, a pest or weed control at 100 ppm (Septoria tritici; [2]) of 26 to 50% and a melting point of 165 °C.
Work on `CC(=O)/N=c1\c(F)cn(S(=O)(=O)c2cccc(C)c2)c(=O)n1C` [Compound F34] yielded a pest or weed control at 100 ppm (Septoria tritici; [1]) of 76 to 100%, a pest or weed control at 100 ppm (Septoria tritici; [2]) of 0 to 25% and a melting point of 164 °C.
With `COC(=O)/N=c1\c(F)cn(S(=O)(=O)c2ccc(C)cc2)c(=O)n1C` [Compound F46] the pest or weed control at 100 ppm (Septoria tritici; [1]) was 0 to 25%, the pest or weed control at 100 ppm (Septoria tritici; [2]) was 0 to 25% and the melting point was 145 to 146 °C.
For `Cn1c(=O)n(S(=O)(=O)c2ccccc2)cc(F)/c1=N\Cc1ccccc1F` [Compound F52], the pest or weed control at 100 ppm (Septoria tritici; [1]) was 0 to 25%, the pest or weed control at 100 ppm (Septoria tritici; [2]) was 0 to 25% and the melting point was 189 to 192 °C.
Work on `C/N=c1\c(F)cn(S(=O)(=O)c2cccs2)c(=O)n1C` [Compound F4] yielded a pest or weed control at 100 ppm (Septoria tritici; [1]) of 76 to 100%, a pest or weed control at 100 ppm (Septoria tritici; [2]) of 76 to 100% and a melting point of 136 to 138 °C.
Work on `[2H]C([2H])([2H])/N=c1\c(F)cn(S(=O)(=O)c2ccccc2)c(=O)n1C([2H])([2H])[2H]` [Compound F61, 5-fluoro-1-(phenylsulfonyl)-3-trideuteriomethyl-4-(trideuteriomethylimino)-3,4-dihydropyrimidin-2(1H)-one] yielded a pest or weed control at 100 ppm (Septoria tritici; [1]) of 0 to 25% and a pest or weed control at 100 ppm (Septoria tritici; [2]) of 0 to 25%.
For `C/N=c1\c(F)cn(S(=O)(=O)c2cn(C)nc2C)c(=O)n1C` [Compound F18], the pest or weed control at 100 ppm (Septoria tritici; [1]) was 26 to 50%, the pest or weed control at 100 ppm (Septoria tritici; [2]) was 76 to 100% and the melting point was 147 to 149 °C.
For `Cc1ccc(S(=O)(=O)n2cc(F)/c(=N/C(=O)C(C)C)n(COC(=O)C(C)C)c2=O)cc1` [Compound F25, Z)-(5-fluoro-6-(isobutyrylimino)-2-oxo-3-tosyl-2,3-dihydropyrimidin-1(6H)-yl)methyl isobutyrate], the pest or weed control at 100 ppm (Septoria tritici; [1]) was 0 to 25% and the pest or weed control at 100 ppm (Septoria tritici; [2]) was 76 to 100%.
`Cn1c(=O)n(S(=O)(=O)c2cc(Cl)sc2Cl)cc(F)/c1=N\Cc1ccccc1F` [Compound F59] gave a pest or weed control at 100 ppm (Septoria tritici; [1]) of 0 to 25%, a pest or weed control at 100 ppm (Septoria tritici; [2]) of 0 to 25% and a melting point of 108 to 111 °C.
In the case of `CC(=O)/N=c1\c(F)cn(S(=O)(=O)c2ccc(C)cc2)c(=O)n1C` [Compound F29], the pest or weed control at 100 ppm (Septoria tritici; [1]) is reported as 76 to 100%, the pest or weed control at 100 ppm (Septoria tritici; [2]) is reported as 76 to 100% and the melting point is reported as 134.6 to 136.2 °C.
`CCc1ccc(S(=O)(=O)n2cc(F)/c(=N\C(=O)Oc3ccccc3)n(C)c2=O)cc1` [Compound F40] gave a pest or weed control at 100 ppm (Septoria tritici; [3]) of 0 to 25%, a pest or weed control at 100 ppm (Septoria tritici; [4]) of 0 to 25% and a melting point of 188 to 190 °C.
`Cc1ccc(S(=O)(=O)n2cc(F)/c(=N\C(=O)Oc3ccccc3)n(C)c2=O)cc1` [Compound F39] showed a pest or weed control at 100 ppm (Septoria tritici; [3]) of 26 to 50%, a pest or weed control at 100 ppm (Septoria tritici; [4]) of 26 to 50% and a melting point of 200 to 202 °C.
For `C/N=c1\c(F)cn(S(=O)(=O)c2ccc(F)cc2Cl)c(=O)n1C` [Compound F21], the melting point was 109 to 112 °C.
`Cc1cc(S(=O)(=O)n2cc(F)/c(=N\C(=O)Oc3ccccc3)n(C)c2=O)c(C)cc1Cl` [Compound F43] showed a pest or weed control at 100 ppm (Septoria tritici; [3]) of 0 to 25%, a pest or weed control at 100 ppm (Septoria tritici; [4]) of 0 to 25% and a melting point of 209 to 211 °C.
With `C/N=c1\c(F)cn(S(=O)(=O)c2c(C)cc(C)cc2C)c(=O)n1C` [Compound F15] the pest or weed control at 100 ppm (Septoria tritici; [1]) was 26 to 50%, the pest or weed control at 100 ppm (Septoria tritici; [2]) was 26 to 50% and the melting point was 175.7 to 177.6 °C.
`C/N=c1\c(F)cn(S(=O)(=O)c2ccsc2)c(=O)n1C` [Compound F17] showed a pest or weed control at 100 ppm (Septoria tritici; [1]) of 76 to 100%, a pest or weed control at 100 ppm (Septoria tritici; [2]) of 76 to 100% and a melting point of 121.1 to 122.6 °C.
Work on `C/N=c1\c(F)cn(S(=O)(=O)c2cc(C)c(Cl)cc2C)c(=O)n1C` [Compound F22] yielded a pest or weed control at 100 ppm (Septoria tritici; [1]) of 76 to 100% and a pest or weed control at 100 ppm (Septoria tritici; [2]) of 76 to 100%.
For `CC(=O)/N=c1\c(F)cn(S(=O)(=O)c2ccccc2)c(=O)n1C` [Compound F30], the pest or weed control at 100 ppm (Septoria tritici; [1]) was 76 to 100%, the pest or weed control at 100 ppm (Septoria tritici; [2]) was 76 to 100% and the melting point was 174 °C.
Work on `COC(=O)/N=c1\c(F)cn(S(=O)(=O)c2cccc(C)c2)c(=O)n1C` [Compound F49] yielded a pest or weed control at 100 ppm (Septoria tritici; [1]) of 0 to 25%, a pest or weed control at 100 ppm (Septoria tritici; [2]) of 0 to 25% and a melting point of 200 to 201 °C.
`C/N=c1\c(F)cn(S(=O)(=O)c2ccccc2)c(=O)n1C` [Compound F2] gave a pest or weed control at 100 ppm (Septoria tritici; [1]) of 76 to 100%, a pest or weed control at 100 ppm (Septoria tritici; [2]) of 51 to 75% and a melting point of 142 to 144 °C.
`[2H]C([2H])([2H])/N=c1\c(F)cn(S(=O)(=O)c2ccc(OC)cc2)c(=O)n1C([2H])([2H])[2H]` [Compound F63, 5-fluoro-1-((4-methoxyphenyl)sulfonyl)-3-trideuteriomethyl-4-(trideuteriomethylimino)-3,4-dihydropyrimidin-2(1H)-one] showed a pest or weed control at 100 ppm (Septoria tritici; [1]) of 0 to 25% and a pest or weed control at 100 ppm (Septoria tritici; [2]) of 0 to 25%.
In the case of `COC(=O)/N=c1\c(F)cn(S(=O)(=O)c2ccc(OC)cc2)c(=O)n1C` [Compound F27, methyl (5-fluoro-1-((4-methoxyphenyl)sulfonyl)-3-methyl-2-oxo-2,3-dihydropyrimidin-4(1H)-ylidene)carbamate], the pest or weed control at 100 ppm (Septoria tritici; [1]) is reported as 0 to 25%, the pest or weed control at 100 ppm (Septoria tritici; [2]) is reported as 0 to 25% and the melting point is reported as 124 to 125 °C.
`Cc1ccc(S(=O)(=O)n2cc(F)/c(=N\Cc3ccccc3F)n(C)c2=O)cc1` [Compound F54] showed a pest or weed control at 100 ppm (Septoria tritici; [1]) of 0 to 25%, a pest or weed control at 100 ppm (Septoria tritici; [2]) of 0 to 25% and a melting point of 184 to 187 °C.
With `C/N=c1\c(F)cn(S(=O)(=O)c2ccc(Cl)cc2)c(=O)n1C` [Compound F5] the pest or weed control at 100 ppm (Septoria tritici; [1]) was 76 to 100%, the pest or weed control at 100 ppm (Septoria tritici; [2]) was 76 to 100% and the melting point was 130 to 134 °C.
`Cn1c(=O)n(S(=O)(=O)c2cc(Cl)sc2Cl)cc(F)/c1=N\C(=O)Oc1ccccc1` [Compound F44] gave a pest or weed control at 100 ppm (Septoria tritici; [3]) of 76 to 100%, a pest or weed control at 100 ppm (Septoria tritici; [4]) of 76 to 100% and a melting point of 158 to 159 °C.
Work on `CCc1ccc(S(=O)(=O)n2cc(F)/c(=N\Cc3ccccc3F)n(C)c2=O)cc1` [Compound F55] yielded a pest or weed control at 100 ppm (Septoria tritici; [1]) of 0 to 25%, a pest or weed control at 100 ppm (Septoria tritici; [2]) of 0 to 25% and a melting point of 140 to 141 °C.
Work on `C/N=c1\c(F)cn(S(=O)(=O)c2cc(Cl)cc(Cl)c2)c(=O)n1C` [Compound F20] yielded a pest or weed control at 100 ppm (Septoria tritici; [1]) of 26 to 50%, a pest or weed control at 100 ppm (Septoria tritici; [2]) of 0 to 25% and a melting point of 135 to 136.9 °C.
In the case of `COC(=O)/N=c1\c(F)cn(S(=O)(=O)c2cc(C)c(Cl)cc2C)c(=O)n1C` [Compound F50], the pest or weed control at 100 ppm (Septoria tritici; [1]) is reported as 0 to 25%, the pest or weed control at 100 ppm (Septoria tritici; [2]) is reported as 0 to 25% and the melting point is reported as 178 to 179 °C.
`COc1ccc(S(=O)(=O)n2cc(F)/c(=N/C(C)=O)n(C)c2=O)cc1` [Compound F26] showed a pest or weed control at 100 ppm (Septoria tritici; [1]) of 76 to 100% and a pest or weed control at 100 ppm (Septoria tritici; [2]) of 76 to 100%.
`[2H]C([2H])([2H])/N=c1\c(F)cn(S(=O)(=O)c2ccc(C)cc2)c(=O)n1C([2H])([2H])[2H]` [Compound F62, 5-fluoro-1-((4-methylphenyl)sulfonyl)-3-trideuteriomethyl-4-(trideuteriomethylimino)-3,4-dihydropyrimidin-2(1H)-one] gave a pest or weed control at 100 ppm (Septoria tritici; [1]) of 0 to 25% and a pest or weed control at 100 ppm (Septoria tritici; [2]) of 0 to 25%.
For `COc1ccc(S(=O)(=O)n2cc(F)/c(=N\C(C)=O)n(C)c2=O)cc1` [Compound F31, N-(5-fluoro-1-((4-methoxyphenyl)sulfonyl)-3-methyl-2-oxo-2,3-dihydropyrimidin-4(1H)-ylidene)acetamide], the pest or weed control at 100 ppm (Septoria tritici; [1]) was 76 to 100% and the pest or weed control at 100 ppm (Septoria tritici; [2]) was 76 to 100%.
With `C/N=c1\c(F)cn(S(=O)(=O)c2sc(C)nc2C)c(=O)n1C` [Compound F23] the pest or weed control at 100 ppm (Septoria tritici; [1]) was 26 to 50% and the pest or weed control at 100 ppm (Septoria tritici; [2]) was 76 to 100%.
